Laboratory results taken from patent US20170088520A1, “DEUBIQUITINASE INHIBITORS” (PharmAkea, Inc., priority 2014, published 2017).

Experiments:
Format in all cases: cell-based
[1] = biological target: T1, DUB activity in cells (NCI-H929, Z138, MM.1S, A375) (Homo sapiens, UniProt Q93008); test: HA-Ubiquitin-Vinylsulfone (HA-Ub-VS) cell labeling assay; conditions: compound tested at 5 μM; HA-Ub-VS labeling of USP9x in cells
T1 construct: endogenous in cells; host or cells: NCI-H929, Z138, MM.1S, A375
T1 sequence (Q93008 whole entry): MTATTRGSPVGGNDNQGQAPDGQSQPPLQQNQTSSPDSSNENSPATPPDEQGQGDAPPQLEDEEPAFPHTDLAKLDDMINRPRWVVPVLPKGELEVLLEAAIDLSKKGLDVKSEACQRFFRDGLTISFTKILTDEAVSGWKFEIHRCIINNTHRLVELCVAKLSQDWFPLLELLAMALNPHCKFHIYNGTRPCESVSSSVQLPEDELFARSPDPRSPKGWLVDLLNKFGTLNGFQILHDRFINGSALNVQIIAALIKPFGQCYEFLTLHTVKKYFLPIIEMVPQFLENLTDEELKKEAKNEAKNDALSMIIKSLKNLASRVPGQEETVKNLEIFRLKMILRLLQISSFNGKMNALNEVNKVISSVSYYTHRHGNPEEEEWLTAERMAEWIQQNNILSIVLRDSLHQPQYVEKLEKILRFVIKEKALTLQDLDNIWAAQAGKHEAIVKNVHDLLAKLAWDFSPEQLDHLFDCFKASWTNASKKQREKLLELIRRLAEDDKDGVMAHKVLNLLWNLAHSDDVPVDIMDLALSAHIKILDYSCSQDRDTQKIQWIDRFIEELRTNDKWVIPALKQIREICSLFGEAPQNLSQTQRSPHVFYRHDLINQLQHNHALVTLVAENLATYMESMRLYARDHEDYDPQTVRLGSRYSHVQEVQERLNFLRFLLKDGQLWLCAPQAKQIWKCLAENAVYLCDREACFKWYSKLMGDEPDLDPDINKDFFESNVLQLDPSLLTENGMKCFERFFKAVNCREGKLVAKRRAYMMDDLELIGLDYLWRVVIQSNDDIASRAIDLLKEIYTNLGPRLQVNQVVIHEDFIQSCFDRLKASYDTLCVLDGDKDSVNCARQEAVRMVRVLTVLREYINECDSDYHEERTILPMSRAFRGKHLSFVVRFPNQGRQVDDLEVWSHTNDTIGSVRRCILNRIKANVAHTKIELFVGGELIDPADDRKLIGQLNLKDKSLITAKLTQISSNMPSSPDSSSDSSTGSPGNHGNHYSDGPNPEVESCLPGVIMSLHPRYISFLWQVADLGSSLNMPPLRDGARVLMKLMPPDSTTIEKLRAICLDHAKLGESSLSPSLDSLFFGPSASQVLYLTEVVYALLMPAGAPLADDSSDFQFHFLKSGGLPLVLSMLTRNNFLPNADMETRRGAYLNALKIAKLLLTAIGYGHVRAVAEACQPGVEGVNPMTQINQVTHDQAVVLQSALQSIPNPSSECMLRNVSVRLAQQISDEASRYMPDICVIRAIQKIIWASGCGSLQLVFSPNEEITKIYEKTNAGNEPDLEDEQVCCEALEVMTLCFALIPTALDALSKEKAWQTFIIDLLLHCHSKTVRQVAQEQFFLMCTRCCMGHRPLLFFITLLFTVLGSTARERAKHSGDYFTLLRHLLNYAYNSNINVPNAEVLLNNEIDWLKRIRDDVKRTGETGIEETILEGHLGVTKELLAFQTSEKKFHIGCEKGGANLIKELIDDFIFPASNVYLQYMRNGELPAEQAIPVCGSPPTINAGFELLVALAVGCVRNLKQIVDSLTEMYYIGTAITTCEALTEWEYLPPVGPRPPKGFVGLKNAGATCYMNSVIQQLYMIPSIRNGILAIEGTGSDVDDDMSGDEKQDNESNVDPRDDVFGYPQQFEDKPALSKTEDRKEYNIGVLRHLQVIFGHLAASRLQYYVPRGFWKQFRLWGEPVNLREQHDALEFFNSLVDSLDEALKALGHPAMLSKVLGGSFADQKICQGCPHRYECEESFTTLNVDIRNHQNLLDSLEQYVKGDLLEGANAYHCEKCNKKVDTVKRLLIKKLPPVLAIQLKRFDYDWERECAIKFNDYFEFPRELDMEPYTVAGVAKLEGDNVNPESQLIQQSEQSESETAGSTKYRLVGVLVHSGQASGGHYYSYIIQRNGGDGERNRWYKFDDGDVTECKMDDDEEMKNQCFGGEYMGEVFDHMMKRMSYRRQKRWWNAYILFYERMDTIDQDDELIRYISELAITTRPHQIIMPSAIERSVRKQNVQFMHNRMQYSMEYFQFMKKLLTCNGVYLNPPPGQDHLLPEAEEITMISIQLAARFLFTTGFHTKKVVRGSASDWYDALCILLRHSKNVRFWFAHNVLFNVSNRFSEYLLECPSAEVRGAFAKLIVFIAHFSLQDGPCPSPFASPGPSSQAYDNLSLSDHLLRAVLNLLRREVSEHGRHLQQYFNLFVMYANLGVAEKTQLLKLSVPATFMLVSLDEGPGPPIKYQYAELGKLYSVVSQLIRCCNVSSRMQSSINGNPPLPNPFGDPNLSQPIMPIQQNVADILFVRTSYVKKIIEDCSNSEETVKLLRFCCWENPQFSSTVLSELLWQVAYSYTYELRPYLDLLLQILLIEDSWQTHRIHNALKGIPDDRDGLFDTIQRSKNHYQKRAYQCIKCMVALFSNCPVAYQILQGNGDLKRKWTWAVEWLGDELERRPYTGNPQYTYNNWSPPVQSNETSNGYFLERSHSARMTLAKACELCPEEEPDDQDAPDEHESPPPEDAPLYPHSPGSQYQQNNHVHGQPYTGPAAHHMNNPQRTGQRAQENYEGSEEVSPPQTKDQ
Method: Example B-1: HA-Ubiqutin-Vinylsulfone (HA-Ub-VS) Cell Labeling
Inhibitition of DUB activity is measured in cells (NCI-H929, Z138, MM.1S, A375) using a hemaglutinin-ubiquitin-vinylsulfone (HA-Ub-VS) labeling assay. Briefly, 1-2×10^6 cells are plated in 12-well plates in 1 ml complete growth media and 250 μl of test compound in 0.5% dimethylsulfoxide (or DMSO control) is added to each well. Plates are incubated at 37° C., 5% CO2 for 2-6 hours before cells are harvested into eppendorf tubes, washed once in PBS and resuspended in 100 μl cold lysis buffer (50 mM Tris pH 8, 150 mM NaCl, 0.5% NP-40, 2 mM phenylmethylsulfonyl fluoride and complete protease inhibitor tablet). Resupended cells are frozen on dry ice, then thawed and incubated on ice for 15 minutes. Tubes are centrifuged for 10 minutes at 14,000 rpm at 4° C. and the cleared supernatants transferred to clean tubes. […] The samples are incubated 15-60 min at 37° C. before the addition of SDS gel loading buffer. Proteins are separated by SDS-PAGE, transferred to nitrocellulose and the blot probed with anti-HA antibody and anti-β-actin antibodies. The HA and β-actin antibodies are detected using secondary antibodies coupled to IRdye 800 or IRdye 680 and visualized and quantitated using the LiCor Odyssey machine.
(§1) The following compounds were tested in the above assays at 5 μM: […]

[2] = system: Mcl-1 expression in cells (NCI-H929, Z138, MM.1S, A-375); test: Analysis of Mcl-1 expression by Western blotting; conditions: compound tested at 5 μM; Western blot
Method: (§2) Example B-2: Analysis of Md-1 Expression and PARP Cleavage
(§3) The ability of test compounds to decrease expression of the tumor promoting protein, Mcl-1, and to induce the inactivation/cleavage of the PARP protein is evaluated in cells (NCI-H929, Z138, MM.1S, A-375) by Western blotting. Cells are plated and treated as described in the HA-Ub-VS cell labeling assay (see above). A portion of the cleared lysate (15-50 μl) is run on an SDS-polyacrylamide gel to separate proteins and then transferred to nitrocellulose. After transfer to nitrocellulose, the proteins are detected by probing the blot with anti-Mcl-1 and anti-PARP antibodies followed by secondary antibodies coupled to IRdye 800 and IRdye 680 and visualization and quantitation using a LiCor Odyssey machine. Activity of the test compound is identified as a significant decrease in Mcl-1 expression relative to the vehicle treated cells and to the appearance of a cleaved fragment of PARP relative to the vehicle-treated cells.
as §1

[3] = system: PARP cleavage in cells (NCI-H929, Z138, MM.1S, A-375); test: Analysis of PARP cleavage by Western blotting; conditions: compound tested at 5 μM; Western blot
Method: as §2, §3, §1

SMILES	inhibition at 5 µM [1] [%]	inhibition at 5 µM [2] [%]	PARP cleavage % Inhibition [3]
COc1ccc(C2(NC(=O)/C(C#N)=C/c3cccc(Br)n3)CCCC2)cc1 [Compound 16, (E)-3-(6-Bromopyridin-2-yl)-2-cyano-N-(1-(4-methoxyphenyl)cyclopentyl)acrylamide]	50 to 75	50 to 75	A (A is ≧75% inhibition)
N#C/C(=C\c1cccc(Br)n1)C(=O)NC1(c2ccccc2)CCCCC1 [Compound 17, (E)-3-(6-Bromopyridin-2-yl)-2-cyano-N-(1-phenylcyclohexyl)acrylamide]	25 to 50	50 to 75	A (A is ≧75% inhibition)
N#C/C(=C\c1cccc(Br)n1)C(=O)NC1(c2ccccc2)CCOCC1 [Compound 18, (E)-3-(6-Bromopyridin-2-yl)-2-cyano-N-(4-phenyltetrahydro-2H-pyran-4-yl)acrylamide]	50 to 75	25 to 50	B (B is 50% to 75% inhibition)
N#C/C(=C\c1ncc(Br)cc1Br)C(=O)NC1(c2ccc(C(F)(F)F)cc2)CCCC1 [Compound 19, (E)-2-Cyano-3-(3,5-dibromopyridin-2-yl)-N-(1-(4-(trifluoromethyl)phenyl)cyclopentyl) acrylamide]	≥ 75	≥ 75	A (A is ≧75% inhibition)
N#C/C(=C\c1ncc(Br)cc1Br)C(=O)NC1(c2cccc(Cl)c2)CCCC1 [Compound 20, (E)-N-(1-(3-Chlorophenyl)cyclopentyl)-2-cyano-3-(3,5-dibromopyridin-2-yl)acrylamide]	≥ 75	≥ 75	A (A is ≧75% inhibition)
N#C/C(=C\c1ncc(Br)cc1Br)C(=O)NC1(c2ccc(F)cc2)CCCC1 [Compound 21, (E)-2-Cyano-3-(3,5-dibromopyridin-2-yl)-N-(1-(4-fluorophenyl)cyclopentyl)acrylamide]	≥ 75	≥ 75	A (A is ≧75% inhibition)
N#C/C(=C\c1ncc(Br)cc1Br)C(=O)NC1(c2ccc(Cl)cc2)CCCC1 [Compound 22, (E)-N-(1-(4-Chlorophenyl)cyclopentyl)-2-cyano-3-(3,5-dibromopyridin-2-yl)acrylamide]	≥ 75	≥ 75	A (A is ≧75% inhibition)
N#C/C(=C\c1ncc(Br)cc1Br)C(=O)NC1(c2ccccc2)CCCCC1 [Compound 23, (E)-2-Cyano-3-(3,5-dibromopyridin-2-yl)-N-(1-phenylcyclohexyl)acrylamide]	≥ 75	≥ 75	A (A is ≧75% inhibition)
N#C/C(=C\c1ncc(Br)cc1Br)C(=O)NC1(c2ccccc2)CCOCC1 [Compound 24, (E)-2-Cyano-3-(3,5-dibromopyridin-2-yl)-N-(4-phenyltetrahydro-2H-pyran-4-yl)acrylamide]	≥ 75	50 to 75	A (A is ≧75% inhibition)
N#C/C(=C\c1ncc(Br)cc1Br)C(=O)NC1(c2ccccc2)CCCCCC1 [Compound 25, (E)-2-Cyano-3-(3,5-dibromopyridin-2-yl)-N-(1-phenylcycloheptyl)acrylamide]	≥ 75	≥ 75	A (A is ≧75% inhibition)
Cc1cccc(C2(NC(=O)/C(C#N)=C/c3ncc(Br)cc3Br)CCCC2)c1 [Compound 26, (E)-2-cyano-3-(3,5-dibromopyridin-2-yl)-N-(1-(m-tolyl)cyclopentyl)acrylamide]	≥ 75	≥ 75	A (A is ≧75% inhibition)
CC(C)(C)c1ccc(C2(NC(=O)/C(C#N)=C/c3ncc(Br)cc3Br)CCCC2)cc1 [Compound 27, (E)-N-(1-(4-(tert-butyl)phenyl)cyclopentyl)-2-cyano-3-(3,5-dibromopyridin-2-yl)acrylamide]	≥ 75	≥ 75	A (A is ≧75% inhibition)
N#C/C(=C\c1cc(Br)ccn1)C(=O)NC1(c2ccccc2)CCCC1 [Compound 28, (E)-3-(4-bromopyridin-2-yl)-2-cyano-N-(1-phenylcyclopentyl)acrylamide]	< 25	< 25	D (D is <25% inhibition)
N#C/C(=C\c1ccc(Br)cn1)C(=O)NC1(c2ccccc2)CCCC1 [Compound 29, (E)-3-(5-bromopyridin-2-yl)-2-cyano-N-(1-phenylcyclopentyl)acrylamide]	50 to 75	< 25	A (A is ≧75% inhibition)
N#C/C(=C\c1cccc(-c2cccnc2)n1)C(=O)NC1(c2ccccc2)CCCC1 [Compound 30, (E)-3-([2,3′-bipyridin]-6-yl)-2-cyano-N-(1-phenylcyclopentyl)acrylamide]	25 to 50	25 to 50	A (A is ≧75% inhibition)
CCOC(=O)c1ccc(-c2cccc(/C=C(\C#N)C(=O)NC3(c4ccccc4)CCCC3)n2)cc1 [Compound 31, (E)-ethyl 4-(6-(2-cyano-3-oxo-3-((1-phenylcyclopentyl)amino)prop-1-en-1-yl)pyridin-2-yl)benzoate]	25 to 50	< 25	B (B is 50% to 75% inhibition)
CCOC(=O)c1ccc(-c2ccc(C3(NC(=O)/C(C#N)=C/c4ncc(Br)cc4Br)CCCC3)cc2)cc1 [Compound 32, (E)-ethyl 4′-(1-(2-cyano-3-(3,5-dibromopyridin-2-yl)acrylamido)cyclopentyl)-[1,1′-biphenyl]-4-carboxylate]	< 25	< 25	D (D is <25% inhibition)
COC(=O)c1cncc(-c2cccc(/C=C(\C#N)C(=O)NC3(c4ccccc4)CCCC3)n2)c1 [Compound 33]	50 to 75	≥ 75	A (A is ≧75% inhibition)
COC(=O)c1cccc(-c2cccc(/C=C(\C#N)C(=O)NC3(c4ccccc4)CCCC3)n2)c1 [Compound 34]	50 to 75	25 to 50	A (A is ≧75% inhibition)
N#C/C(=C\c1cccc(-c2ccc(OCC(=O)O)cc2)n1)C(=O)NC1(c2ccccc2)CCCC1 [Compound 36]	< 25	< 25	D (D is <25% inhibition)
COC(=O)c1ccc(-c2ccc(C3(NC(=O)/C(C#N)=C/c4ncc(Br)cc4Br)CCCC3)cc2)cn1 [Compound 37, (E)-methyl 5-(4-(1-(2-cyano-3-(3,5-dibromopyridin-2-yl)acrylamido)cyclopentyl)phenyl)picolinate]	50 to 75	50 to 75	B (B is 50% to 75% inhibition)
COC(=O)c1cccc(-c2ccc(C3(NC(=O)/C(C#N)=C/c4ncc(Br)cc4Br)CCCC3)cc2)c1 [Compound 38, (E)-methyl 4′-(1-(2-cyano-3-(3,5-dibromopyridin-2-yl)acrylamido)cyclopentyl)-[1,1′-biphenyl]-3-carboxylate]	50 to 75	50 to 75	A (A is ≧75% inhibition)
N#C/C(=C\c1ncc(Br)cc1Br)C(=O)NC1(c2ccc(-c3cccnc3)cc2)CCCC1 [Compound 39, (E)-2-cyano-3-(3,5-dibromopyridin-2-yl)-N-(1-(4-(pyridin-3-yl)phenyl)cyclopentyl)acrylamide]	50 to 75	≥ 75	A (A is ≧75% inhibition)
N#C/C(=C\c1cccc(-c2ccc(CC(=O)O)cc2)n1)C(=O)NC1(c2ccccc2)CCCC1 [Compound 40]	< 25	< 25	C (C is 25% to 50% inhibition)
COC(=O)c1ccc(C2(NC(=O)/C(C#N)=C/c3cccc(Br)n3)CCCC2)cc1 [Compound 41, (E)-methyl 4-(1-(3-(6-bromopyridin-2-yl)-2-cyanoacrylamido)cyclopentyl)benzoate]	50 to 75	≥ 75	A (A is ≧75% inhibition)
